Experiment [1] has as its system MDA-MB-468. Briefly: NCI60 five-dose screen. Format: cell-based. Particulars: Homo sapiens, MDA-MB-468, breast cancer; for CC50: read-out: LC50 (the source's name).
For experiment [2], the system named is PC-3. The experiment in a line: NCI60 five-dose screen. Format: cell-based. Particulars: Homo sapiens, PC-3, prostate cancer; for CC50: read-out: LC50 (the source's name).
Experiment [3] deals with OVCAR-4. The experiment in a line: NCI60 five-dose screen. The experiment is classed as cell-based. Particulars: Homo sapiens, OVCAR-4, ovarian cancer; for CC50: read-out: LC50 (the source's name).
For experiment [4], the system named is SF-268. Briefly: NCI60 five-dose screen. The experiment is classed as cell-based. Particulars: Homo sapiens, SF-268, CNS cancer; for CC50: read-out: LC50 (the source's name).
Experiment [5] deals with DU-145. The experiment in a line: NCI60 five-dose screen. Format: cell-based. Particulars: Homo sapiens, DU-145, prostate cancer; for CC50: read-out: LC50 (the source's name).
Experiment [6] concerns ACHN. Briefly: NCI60 five-dose screen. Format: cell-based. The settings on record: Homo sapiens, renal cancer; for CC50: read-out: LC50 (the source's name).
Experiment [7] deals with SF-295. The experiment in a line: NCI60 five-dose screen. Format: cell-based. Particulars: Homo sapiens, SF-295, CNS cancer; for CC50: read-out: LC50 (the source's name).
Experiment [8] concerns COLO 205. The experiment in a line: NCI60 five-dose screen. The settings on record: Homo sapiens; for CC50: COLO 205, COLO 205, colon cancer, read-out: LC50 (the source's name); for GI50: COLO 205, colon cancer. The experiment is classed as cell-based, human.
The target in experiment [9] is T1, porcine brain tubulin (Sus scrofa, UniProt P02550+P02554).
T1 construct: a solution containing porcine brain tubulin (2 mg mL^−1); purchased Cytoskeleton BK011P; host or cells: porcine brain (tissue-purified)
T1 sequence (P02554 whole entry): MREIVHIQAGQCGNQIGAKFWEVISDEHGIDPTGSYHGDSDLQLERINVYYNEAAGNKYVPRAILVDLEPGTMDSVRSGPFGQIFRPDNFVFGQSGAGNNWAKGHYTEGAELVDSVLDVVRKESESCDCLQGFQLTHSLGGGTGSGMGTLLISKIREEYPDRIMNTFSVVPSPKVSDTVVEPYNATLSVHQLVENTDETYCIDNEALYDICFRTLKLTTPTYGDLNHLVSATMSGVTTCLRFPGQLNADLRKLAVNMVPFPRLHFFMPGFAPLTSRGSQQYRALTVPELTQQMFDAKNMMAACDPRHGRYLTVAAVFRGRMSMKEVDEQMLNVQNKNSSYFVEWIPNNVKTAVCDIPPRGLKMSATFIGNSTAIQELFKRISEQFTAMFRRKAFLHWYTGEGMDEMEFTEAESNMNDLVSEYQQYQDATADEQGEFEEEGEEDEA
T1 sequence (P02550 whole entry): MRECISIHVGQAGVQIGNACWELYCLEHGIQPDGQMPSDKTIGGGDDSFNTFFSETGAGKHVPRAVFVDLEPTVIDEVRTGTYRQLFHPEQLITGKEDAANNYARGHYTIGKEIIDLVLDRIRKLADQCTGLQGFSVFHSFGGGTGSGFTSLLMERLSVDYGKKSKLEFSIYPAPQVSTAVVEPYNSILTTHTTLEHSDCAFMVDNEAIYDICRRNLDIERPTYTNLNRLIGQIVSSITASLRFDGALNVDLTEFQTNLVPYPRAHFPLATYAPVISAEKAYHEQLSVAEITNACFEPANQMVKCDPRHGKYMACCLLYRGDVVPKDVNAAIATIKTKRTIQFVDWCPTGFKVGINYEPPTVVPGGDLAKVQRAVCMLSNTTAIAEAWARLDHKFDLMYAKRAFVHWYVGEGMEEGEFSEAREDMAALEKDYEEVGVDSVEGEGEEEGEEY
Briefly: Tubulin polymerisation assay (fluorescence-based). Format: biochemical. The settings on record: 10 µM, 37 °C. The procedure:
The tubulin polymerisation experimental protocol followed the method described in this literature.[28] The experimental was using fluorescence-based assay kit (Cytoskeleton, catalog no. BK011P). In Brief, 5 µL of test compounds was added to a 96-well plate, then mix with 50 µL of a solution containing porcine brain tubulin (2 mg mL^−1) in buffer with 20% glycerol and 1 mM GTP. A microplate reader (Varioskan™ LUX multimode microplate reader, Thermo Scientific™) was used to measure fluorescence intensity every 60 seconds for 60 minutes, with excitation at 360 nm and emission at 450 nm, maintained at 37 °C throughout the experiment.

Experiment [10] has as its system A549/ATCC. Briefly: NCI60 five-dose screen. Format: cell-based. Particulars: Homo sapiens, NSC lung cancer; for CC50: read-out: LC50 (the source's name).
Experiment [11] concerns SN12C. The experiment in a line: NCI60 five-dose screen. The experiment is classed as cell-based. The settings on record: Homo sapiens, renal cancer; for CC50: read-out: LC50 (the source's name).
Experiment [12] relates to SR. Briefly: NCI60 five-dose screen. The experiment is classed as cell-based. Particulars: Homo sapiens, leukemia; for CC50: read-out: LC50 (the source's name).

Consider `O=C(N/N=C/c1cc[nH]c1)c1[nH]c2ccc(Br)cc2c1-c1ccccc1` [Derivative 3b, (E)-N′-((1H-Pyrrol-3-yl)methylene)-5-bromo-3-phenyl-1H-indole-2-carbohydrazide], for which the GI50 in experiment [1] was 0.593 µM; in [2], 2 µM; in experiment [3], 4.82 µM; in experiment [4], 2.41 µM; in experiment [5], 1.95 µM; in experiment [6], 1.71 µM. In addition, the GI50 is 1.94 µM in experiment [7], 1.23 µM in experiment [8], 1.61 µM in experiment [10] and 1.49 µM in [11]. The CC50 in experiment [1] was 24.2 µM; in [2], over 100 µM; in [3] it was 45.2 µM; in [4], 59.1 µM; in [5], 34.7 µM; in [6], 39 µM. Moreover, the CC50 in [7] was determined as 33.8 µM; in experiment [8], 20.4 µM; in experiment [10], 52.6 µM; in experiment [11] it was 37.7 µM. Besides, the “tubulin inhibition” value in [9] is “weak tubulin inhibitors”.

For `Cn1cccc1/C=N/NC(=O)c1[nH]c2ccc(Br)cc2c1-c1ccccc1` [Derivative 3d, (E)-5-Bromo-N′-((1-methyl-1H-pyrrol-2-yl)methylene)-3-phenyl-1H-indole-2-carbohydrazide], the GI50 in experiment [1] amounted to 0.155 µM; in experiment [2], 0.564 µM; in experiment [3], 0.637 µM; in experiment [4], 0.547 µM; in experiment [5] it was 0.399 µM; in experiment [6] it was 0.175 µM. For the same molecule, the GI50 was 0.321 µM in experiment [7], 0.366 µM in [8], 0.649 µM in [10] and 0.497 µM in experiment [11]. Moreover, the CC50 in experiment [1], in [2], in experiment [3], in experiment [4], in experiment [5] and in experiment [6] was over 100 µM in each case. The CC50 in [7], in experiment [8], in [10] and in experiment [11] was over 100 µM each time. The “tubulin inhibition” value in experiment [9] is “weak tubulin inhibitors”.

Take `CCOC(=O)c1ccc(/C=N/NC(=O)c2[nH]c3ccc(Br)cc3c2-c2ccccc2)[nH]1` [Derivative 3i, Ethyl (E)-5-((2-(5-bromo-3-phenyl-1H-indole-2-carbonyl)hydrazono)methyl)-1H-pyrrole-2-carboxylate]: the 50% growth inhibitory concentration (GI50) in experiment [1] worked out at 1.63 µM; in experiment [2], 2.28 µM; in experiment [3], 4.26 µM; in experiment [4], 2.68 µM; in experiment [5], 3.32 µM; in [6], 1.86 µM. Moreover, the GI50 in experiment [7] was determined as 1.8 µM; in experiment [8] it was 3.15 µM; in experiment [10] it was 3.25 µM; in experiment [11], 2.86 µM. Besides, the CC50 is 36.6 µM in [1]; over 100 µM in experiment [2]; over 100 µM in experiment [3]; over 100 µM in [4]; 38.7 µM in experiment [5]; 73.8 µM in [6]. Also, the CC50 in [7] worked out at 38.1 µM; in [8], 36.9 µM; in experiment [10] it was 79.4 µM; in experiment [11] it was 36.2 µM.

With `CCOC(=O)c1c[nH]c(/C=N/NC(=O)c2[nH]c3ccc(Br)cc3c2-c2ccccc2)c1` [Derivative 3j, Ethyl (E)-5-((2-(5-bromo-3-phenyl-1H-indole-2-carbonyl)hydrazono)methyl)-1H-pyrrole-3-carboxylate], the GI50 in experiment [1] came to 2.47 µM; in [2], 3.76 µM; in experiment [3], 2.28 µM; in experiment [4], 2.29 µM; in experiment [5] it was 3.48 µM; in experiment [12] it was 0.948 µM. Moreover, the GI50 was found to be 3.39 µM in experiment [6]; 2.34 µM in experiment [7]; 2.49 µM in experiment [8]; 2.7 µM in experiment [10]; 2.49 µM in experiment [11]. Moreover, the CC50 in experiment [1] is 24.2 µM; in experiment [2], over 100 µM; in [3], 34.8 µM; in [4], 46.3 µM; in experiment [5], 35.6 µM; in experiment [12], over 100 µM. The CC50 in experiment [6] was 36.4 µM; in experiment [7] it was 24.4 µM; in [8] it was 55.2 µM; in [10], 51.8 µM; in experiment [11], 33.3 µM.

For the molecule `O=C(N/N=C/c1ccc(C(=O)N2CCOCC2)[nH]1)c1[nH]c2ccc(Br)cc2c1-c1ccccc1` [Derivative 3n, (E)-5-Bromo-N′-((5-(morpholine-4-carbonyl)-1H-pyrrol-2-yl)methylene)-3-phenyl-1H-indole-2-carbohydrazide], the GI50 in [1] amounted to 1.98 µM; in experiment [2], 3.44 µM; in [3], 2.93 µM; in experiment [4], 2.51 µM; in experiment [5], 3.72 µM; in experiment [12], 0.405 µM. Also, the GI50 in experiment [6] came to 4.56 µM; in experiment [7] it was 1.63 µM; in experiment [8], 3.12 µM; in experiment [10], 3.88 µM; in [11], 3.14 µM. Moreover, the CC50 was 75.5 µM in [1]; over 100 µM in [2]; over 100 µM in [3]; over 100 µM in experiment [4]; over 100 µM in [5]; 38.9 µM in experiment [12]. Moreover, the CC50 was over 100 µM in [6]; 31 µM in experiment [7]; 37.5 µM in experiment [8]; over 100 µM in experiment [10]; 79.7 µM in experiment [11].

For `Cc1[nH]c(/C=N/NC(=O)c2[nH]c3ccc(Br)cc3c2-c2ccccc2)c(C)c1[N+](=O)[O-]` [Derivative 3r, (E)-5-Bromo-N′-((3,5-dimethyl-4-nitro-1H-pyrrol-2-yl)methylene)-3-phenyl-1H-indole-2-carbohydrazide], the concentration for 50% growth inhibition (GI50) is 1.94 µM in [1]; 2.85 µM in experiment [2]; 1.97 µM in experiment [3]; 2.37 µM in [4]; 3.48 µM in experiment [5]; 2.04 µM in experiment [12]. Also, the 50% growth inhibitory concentration (GI50) in [6] amounted to 3.3 µM; in experiment [7] it was 2.32 µM; in [8] it was 1.9 µM; in [10], 3.19 µM; in experiment [11] it was 1.74 µM. Besides, the CC50 in experiment [1] is 26.1 µM; in [2], 45.5 µM; in experiment [3] it was 18.8 µM; in experiment [4], 33.1 µM; in experiment [5], 34.9 µM; in experiment [12], over 100 µM. Moreover, the CC50 in experiment [6] stood at 33.4 µM; in [7], 21.2 µM; in [8] it was 7.51 µM; in experiment [10] it was 35.6 µM; in [11] it was 6.73 µM.

Regarding `CCOC(=O)c1cc(/C=N/NC(=O)c2[nH]c3ccc(Br)cc3c2-c2ccccc2)c[nH]1` [Derivative 3v, Ethyl (E)-4-((2-(5-bromo-3-phenyl-1H-indole-2-carbonyl)hydrazono)methyl)-1H-pyrrole-2-carboxylate], the 50% growth inhibitory concentration (GI50) in [1] is 2.6 µM; in experiment [2], 4.07 µM; in experiment [3], 9 µM; in [4], 6.04 µM; in experiment [5] it was 3.36 µM; in experiment [6] it was 4.87 µM. Also, the GI50 in experiment [7] was 3.04 µM; in [8], 3.51 µM; in [10], 4.37 µM; in experiment [11], 3.63 µM. The CC50 was 34 µM in experiment [1]; over 100 µM in experiment [2]; 52.8 µM in [3]; over 100 µM in experiment [4]; 33.4 µM in experiment [5]; 49.9 µM in experiment [6]. Also, the CC50 amounted to 37.2 µM in experiment [7], 34.8 µM in experiment [8], 44.2 µM in experiment [10] and 38.1 µM in experiment [11].

By GI50 is commonly meant the concentration at which growth is held to half of that of the control. A high value points to lower sensitivity of the cells.
